Data: PubChem BioAssay (NCI)
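Values below derive from 48-hour exposures of cells grown in 96-well plates, with endpoints linearly interpolated between the two concentrations bracketing the appropriate inhibition level. At the TGI there is no net growth.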

Experiments:
Test in all cases: NCI anticancer screen, dose series, 48 h
[1] = system: SNB-75 CNS
[2] = system: SK-MEL-2 melanoma
[3] = system: NCI-H23 lung
[4] = system: IGROV1 ovarian
[5] = system: K-562 leukemia
[6] = system: HCT-15 colon
[7] = system: UACC-62 melanoma
[8] = system: 786-0 renal
[9] = system: HL-60(TB) leukemia
[10] = system: RPMI-8226 leukemia
[11] = system: NCI-H226 lung
[12] = system: SF-268 CNS
[13] = system: MOLT-4 leukemia

Structure (SMILES) | TGI [1] [µM] | TGI [2] [µM] | TGI [3] [µM] | TGI [4] [µM] | TGI [5] [µM] | TGI [6] [µM] | TGI [7] [µM] | TGI [8] [µM] | TGI [9] [µM] | TGI [10] [µM] | TGI [11] [µM] | TGI [12] [µM] | TGI [13] [µM]
CC(C)=CC(=O)c1c(C(=O)O)nc2ccccc2[n+]1[O-] | > 100 | > 100 | > 100 | > 100 | > 100 | > 100 | > 100 | > 100 | > 100 | > 100 | > 100 | > 100 | > 100
Cc1cc(=O)n2nc(CSc3nnc(Sc4cc(O)ccc4O)s3)sc2n1 | > 100 | > 100 | > 100 | > 100 | 41.1 | > 100 | > 100 | > 100 | 54.1 | 61.4 | > 100 | > 100 | 59.5
COc1cccc(N=NN2CCCC2)c1 | > 100 | > 100 | > 100 | > 100 | > 100 | > 100 | > 100 | > 100 | > 100 | > 100 | > 100 | > 100 | > 100
Cc1ccc(NCCN(C)C)c2c(=O)c3cc(O)ccc3sc12 | 9.24 | 35.7 | 16.8 | 17.2 | 11.7 | 9.99 | 9.78 | 9.07 | 6.07 | 11.6 | 15.2 | 15.6 | 3.2
C=CCOC(=O)N1c2ccc(O)cc2[C@@]23O[C@@]24[C@@H]1C#C/C=C\C#C[C@]3(O)C(=O)C[C@@H]4C | > 100 | > 100 | > 100 | > 100 | > 100 | > 100 | > 100 | > 100 | > 100 | > 100 | > 100 | > 100 | 49.4
CC(NNC(=O)c1ccncc1)c1ccc(Cl)cc1Cl (stereo not given) | > 100 | > 100 | > 100 | > 100 | > 100 | > 100 | > 100 | > 100 | > 100 | > 100 | > 100 | > 100 | > 100
C/C(Nc1ccc(Cl)cc1)=C1/CCOC1=O | > 100 | > 100 | > 100 | > 100 | > 100 | > 100 | > 100 | > 100 | > 100 | 60.3 | > 100 | > 100 | > 76.5
Cc1cc2occ(S(=O)(=O)NC(=O)Nc3ccc(Cl)cc3)c(=O)c2c(=O)o1 | > 100 | > 100 | > 100 | > 100 | > 100 | > 100 | > 100 | > 100 | > 100 | > 100 | > 100 | > 100 | > 100
Cc1ccc(NC(=O)C(=O)Cc2cccc[n+]2[O-])cc1C | > 100 | > 100 | > 100 | > 100 | > 100 | > 100 | > 100 | > 100 | > 100 | > 100 | > 100 | > 100 | > 100
N#CC(NNC(=O)c1ccccc1O)c1c(O)ccc2ccccc12 (stereo not given) | 48.3 | 33.3 | 20.8 | 33.9 | > 66.3 | 32.8 | 9.32 | 58.8 | 12.2 | 43 | 13.4 | 64.9 | 37.8
CC1CCCN1CCCOC(=O)c1ccc(OC2C=CCCC2)cc1 (stereo not given) | 34.6 | > 100 | 63.3 | 58.4 | 38.9 | 53 | > 100 | 40.4 | 35.6 | 68.2 | 86.4 | > 100 | 55.3
COc1ccc(C23OCC(Cc4cc(OC)c(OC)cc42)C3CO)cc1OC (stereo not given) | > 100 | > 100 | > 100 | – | > 100 | > 100 | > 100 | > 100 | > 100 | > 100 | > 100 | – | > 100
c1cc2c(cc1[C@@H]1OC[C@@H]3[C@H]1CO[C@H]3c1ccc3c(c1)OCO3)OCO2 | > 100 | > 100 | > 100 | > 100 | > 100 | > 100 | > 100 | > 100 | > 100 | > 100 | > 100 | > 100 | > 100
CC(C)(CN1CCCCC1)C(=O)CC(SCCS(=O)(=O)O)c1ccc(Cl)cc1 (stereo not given) | 15.1 | 18.8 | 16.6 | 20.4 | 9.91 | 6.66 | 13.6 | 8.91 | 8.13 | 6.65 | 27.9 | – | 6.63
O=C1/C(=C/c2ccc(Cl)cc2)Oc2ccccc21 | 98.5 | – | 73.1 | – | > 100 | > 100 | > 100 | 29.7 | > 100 | > 100 | 68 | > 100 | > 100
S=c1[nH]n2c(COc3cc(Cl)c(OCc4nnc5sc(=S)[nH]n45)cc3Cl)nnc2s1 | > 100 | > 100 | > 100 | > 100 | > 100 | > 100 | 83.9 | > 100 | > 100 | > 100 | > 100 | > 100 | > 100
CCc1cc2c(c3c1CCCC3=O)CC1(C2)Cc2cc(CC)c3c(c2C1)C(=O)CCC3 | > 100 | > 100 | > 100 | > 100 | > 100 | > 100 | – | > 100 | > 100 | > 100 | > 100 | > 100 | > 100

Structure (SMILES) | TGI [1] [µM] | TGI [2] [µM] | TGI [3] [µM] | TGI [4] [µM] | TGI [5] [µM] | TGI [6] [µM] | TGI [7] [µM] | TGI [8] [µM] | TGI [9] [µM] | TGI [10] [µM] | TGI [11] [µM] | TGI [12] [µM] | TGI [13] [µM]
CCCCCCCc1ccc(-c2nnc(N=Nc3ccc(OCCCCC)cc3)s2)s1 | > 100 | > 100 | > 100 | > 100 | – | > 100 | > 100 | > 100 | > 100 | > 100 | > 100 | > 100 | > 100
Clc1ccc(C2=NCON=C2c2ccc(Cl)cc2)cc1 | 74.2 | 46.1 | 44.3 | – | 55 | 50.6 | 37.8 | 42.7 | 30.9 | 40.6 | 32.7 | 57.7 | 42.9
Cc1cc(C)nc(NS(=O)(=O)c2ccc(Nc3c4ccccc4nc4ccc(C(=O)Nc5ccc(S(=O)(=O)N=C(N)N)cc5)cc34)cc2)n1 | > 100 | > 100 | > 100 | > 100 | 62.3 | > 100 | > 100 | 53 | > 100 | > 100 | > 100 | > 100 | > 100
O=C(O)CCC1NC(/C(=C/c2ccccc2O)NC(=O)c2ccccc2)OC1=O (stereo not given) | 72.4 | > 100 | > 100 | > 100 | > 100 | > 100 | > 100 | > 100 | > 100 | > 100 | > 100 | > 100 | > 100
O=C1c2ccccc2C(=O)c2sc(Nc3cc(Cl)ccc3Cl)nc21 | 38.2 | 31.6 | 28.7 | 24.3 | > 31.8 | 9.48 | 6.27 | 22.6 | 4.89 | 22.6 | 44.7 | 21 | > 30.4
O=C(c1ccccc1)c1cc(Cl)ccc1NCn1nnc2ccccc21 | > 100 | > 100 | > 100 | > 100 | > 100 | > 100 | > 100 | > 100 | 88.8 | > 100 | > 100 | – | > 100
CN(/N=C\c1ccc2ccccc2c1)C1=NCCCN1 | 91.2 | 35 | > 100 | 23.3 | 34.2 | 74.4 | 34.5 | 29.1 | 37.4 | 50.7 | 40.4 | 60.2 | 8.93
O=C1C2CC[C@@H]3C(=O)C(Cl)(Cl)[C@@H]3CCC2C1(Cl)Cl (stereo not given in full) | > 100 | > 100 | > 100 | > 100 | > 100 | > 100 | > 100 | > 100 | 16.7 | > 100 | > 100 | > 100 | 74.7
CC(=O)N1c2cc(N=NN(C)C)ccc2NC(=O)CC1C (stereo not given) | > 100 | > 100 | > 100 | > 100 | > 100 | > 100 | > 100 | > 100 | > 100 | > 100 | > 100 | > 100 | > 100
CC(=O)O[C@H]1C(=O)[C@@]2(C)[C@H]([C@H](OC(=O)c3ccco3)[C@]3(O)C[C@H](OC(=O)[C@H](O)[C@@H](NC(=O)c4ccccc4)c4ccccc4)C(C)=C1C3(C)C)[C@]1(OC(C)=O)CO[C@@H]1C[C@@H]2O | 3.87 | 0.578 | > 25 | > 25 | – | > 25 | > 25 | > 25 | 0.123 | 0.131 | > 5.05 | > 25 | > 25
CCC1CN2CCc3c([nH]c4ccccc34)[C@@](C(=O)OC)(c3cc4c(cc3OC)N(C)C3C(O)(C(=O)OC)C(C(=O)OC)C5(CC)C=CCN6CCC43C65)C[C@@H](C2)[C@@H]1C(C)(C)C (stereo not given in full) | > 10 | > 4.02 | > 6.31 | > 10 | 9.73 | 2.82 | > 10 | 7.16 | 1.23 | > 4.43 | 0.902 | > 10 | 8.12
O=S(=O)(O)c1cc(O)c(N=Nc2ccc3ccccc3c2O)c2ccccc12 | 79.1 | > 100 | 30.8 | 32.3 | 74.6 | > 100 | 42.3 | > 100 | > 100 | > 100 | 49.5 | 58.7 | 97
CCOC(=O)c1cc2c3c(cc(OC)c2[nH]1)N(C(=O)OCC)CC3 | > 100 | > 100 | > 100 | > 100 | > 100 | > 100 | > 100 | > 100 | > 100 | > 100 | > 100 | > 100 | > 100
CC[C@@]12CCC(=S)N(CCSc3ccccc3)[C@@H]1c1c(n(S(=O)(=O)c3ccc(OC)cc3)c3ccccc13)CC2 | > 100 | > 100 | > 100 | > 100 | > 100 | > 100 | > 100 | > 100 | > 100 | > 100 | > 100 | > 100 | > 100
CC(C)=CCc1c2c(c(O)c3c(=O)c4c(oc13)-c1ccc(O)cc1OC4C=C(C)C)C=CC(C)(C)O2 (stereo not given) | 25.3 | 26.1 | 20.3 | 27.8 | 25.9 | 24.8 | 27.4 | 23.9 | 31.7 | 14.9 | 40.6 | 29.8 | 22.7
CC(=O)NN(c1ccccc1)C1CCN(c2ccccc2)N1C(C)=O (stereo not given) | > 10 | > 10 | > 10 | > 10 | 7.65 | > 10 | – | > 10 | > 10 | > 10 | > 10 | > 10 | > 10
CCOC(=O)C1CCC(=O)N1C(=O)c1ccc(Cl)cc1 (stereo not given) | > 100 | – | > 100 | > 100 | > 100 | > 100 | > 100 | > 100 | > 100 | > 100 | > 100 | > 100 | > 100
